From patent US5122514A, “Psoriasis treatment” (Abbott Laboratories, priority 1991, dated 1992) come the findings set out here.

This experiment concerns psoriatic lesions on the patient's elbow, face and scalp. Nature of the experiment: Grading of psoriatic lesions in a patient after intravenous enalkiren. The format is in vivo, human. The arrangement: key to Right Elbow Lesions lesion severity, lesion ranking: 0: Complete clearing; 1: Minimal severity; 2: Moderately severe; 3: Severe; 4: More severe; key to Right Elbow Lesions erythema, lesion ranking / Face Lesions erythema, lesion ranking / Scalp Lesions erythema, lesion ranking: 0: None; 1: Very Mild: light red/pink; 2: Moderate: red but still not dark in texture; 3: Strong: very red, possibly dark; 4: Extreme: angry red. The method, then:
A patient with documented psoriasis received 0.1 mg/kg of enalkiren (H-((beta,beta-dimethyl)-beta-Ala)-(4-OCH3)Phe-His amide of 2(S)-amino-1cyclohexyl-3(R), 4(S)-dihydroxy-6-methylheptane diacetic acid salt)(enalkiren 5.0 mg/5 ml (0.1% concentration), glacial acetic acid 0.91 mg/5ml and sodium chloride 43.9 mg/5 ml in water for injection) intravenously over a 5 minute period, followed 40 minutes later by administration of an additional 0.3 mg/kg of enalkiren intravenously over a 5 minute period. The psoriatic lesions on the patient's elbow, face and scalp were graded prior to treatment and 2, 4 and 7 days following treatment.

[1] abbreviates: +2 Days after 0.1 mg/kg then 0.3 mg/kg intravenously.
Setting [2] is: +4 Days after 0.1 mg/kg then 0.3 mg/kg intravenously.
Where [3] appears, read: +7 Days after 0.1 mg/kg then 0.3 mg/kg intravenously.
The mark [4] stands for this setting: Treatment Day (graded prior to treatment), person with psoriasis.

SMILES strings stand for the structures. Structures can show the parent of a compound that is named as a salt.

For the compound `COc1ccc(C[C@H](NC(=O)CC(C)(C)N)C(=O)N[C@@H](Cc2cnc[nH]2)C(=O)N[C@@H](CC2CCCCC2)[C@@H](O)[C@@H](O)CC(C)C)cc1` [Enalkiren, H-((beta,beta-dimethyl)-beta-Ala)-(4-OCH3)Phe-His amide of 2(S)-amino-1cyclohexyl-3(R), 4(S)-dihydroxy-6-methylheptane diacetic acid salt], the “Face Lesions erythema, lesion ranking” value is, setting by setting: under setting [1], 3; under setting [2], 2; under setting [3], 2; under setting [4], 3. Further, the “Right Elbow Lesions erythema, lesion ranking” value (from here on “Right Elbow Lesions erythema”) under setting [1] is 4; the “Right Elbow Lesions erythema” value under setting [2] was found to be 3; the “Right Elbow Lesions erythema” value under setting [3] is 3; the “Right Elbow Lesions erythema” value under setting [4] was determined as 4. Also, the “Right Elbow Lesions lesion severity, lesion ranking” value amounted to 4 under setting [1], 3 under setting [2], 3 under setting [3] and 4 under setting [4]. The “Scalp Lesions erythema, lesion ranking” value worked out at 4 under setting [1], 3 under setting [2], 3 under setting [3] and 4 under setting [4].
